Test results reported in patent US20220079962A1, “NUTRITIONAL COMPOSITION COMPRISING 2'FUCOSYLLACTOSE AND DIETARY BUTYRATE” (N.V. Nutricia, priority 2019, published 2022).

Experiments:
[1] = system: human peripheral blood mononuclear cells (PBMC); test: PBMC cell activity (WST-1); type: cell-based; details: after 24 h
Experimental: PBMC activation model: PBMC (0.2.10^6 cell/well) were cultured in 96-well flat bottom plates (Corning). For 24 hours the cells were pre-incubated with 2′-FL (Jennewein), 3′-GL (0-0.3% w/v; […] Sigma Aldrich) and combinations thereof. Subsequently, the cells were CD3/CD28-activated (Pelicluster CD3 and Pelicluster CD28, Sanquin) for an additional 24 hours. After incubation, IFNγ was measured by ELISA in the supernatants (see below). […] Roche) and/or 10% Triton (5 μl; negative control).

Caco-2 cell monolayer = test: DON-induced impairment of Caco-2 cell monolayer integrity (TEER, lucifer yellow flux); type: cell-based, human
Experimental: Caco-2 cells were used according to established methods. In brief: cells were cultured in Dulbecco's modified Eagle medium (DMEM) and seeded at a density of 0.3×10^5 cells into 0.3 cm^2 high pore density (0.4 μm) inserts with a polyethylene terephthalate membrane (BD Biosciences, Franklin Lakes, N.J., USA) placed in a 24-well plate. The Caco-2 cells were maintained in a humidified atmosphere of 95 air and 5% CO2 at 37° C.
Caco-2 cell monolayers were thus grown in a transwell system, which is a model for intestinal barrier function. The monolayers were pretreated for 24 h with different GLs, including beta3′-GL, alpha3′-GL, beta4′-GL and beta6′-GL in a concentration of 0.75 wt. % of the GL, before being exposed to the fungal toxin deoxynivalenol (DON), which is a trigger and model compound to impair intestinal barrier. DON was diluted to a final concentration of 4.2 μM in complete cell medium and added to the apical side as well as to the basolateral side of the transwell inserts. […] Incubation with DON was 24 h.
Measurements of the transepithelial electrical resistance (TEER) and lucifer yellow (LY) permeability were conducted to investigate barrier integrity. For TEER measurements a Millicel-ERS voltohmmeter connected to a pair of chopsticks electrodes was used to measure the TEER values. Results are expressed as a percentage of the initial value. For paracellular tracer flux assay the membrane impermeable lucifer yellow (LY) (Sigma, St Louis, Mo., USA) was added in a concentration of 16 μg/ml to the apical compartment in the transwell plate for 4 h, and the paracellular flux was determined by measuring the fluorescence intensity in the basolateral compartment with a spectrophotofluorimeter (FLUOstar Optima, BMG Labtech, Offenburg, Germany) set at excitation and emission wavelengths of 410 and 520 nm, respectively. Release of interleukin-8 (IL-8 or CXCL8), which is a typical marker for inflammation, was quantified in the medium of the apical side and the basolateral side of the Caco-2 transwell inserts in response to the treatments. CXCL8 concentrations were measured by using the human IL-8 ELISA assay (BD Biosciences, Pharmingem, San Diego, Calif., USA) according to manufacturer's instructions. For more details on materials and methods see Akbari et al, 2016, Eur J Nutr. 56(5):1919-1930.

[2] = system: human peripheral blood mononuclear cells (PBMC); test: PBMC cytokine levels, CD3/CD28 stimulated condition; type: cell-based; details: for Relative level of CCL17, observed / Relative level of IL-4, observed / Relative level of IL-13, observed: blanc = 1, 0.2 wt % 2′-FL, 0.1 wt % 3′-GL, mean
Experimental: Isolation of PBMC from healthy donors: Human peripheral blood mononuclear cells (PBMC) from healthy donors were isolated from buffy coats (Sanquin, Amsterdam, the Netherlands). PBMC were obtained by centrifugation using Leucosep tubes (Greiner Bio-One). PBMC were collected and washed in PBS (Gibco, Thermo Fisher Technologies)+2% heat-inactivated FCS (Invitrogen), followed by hypotonic lysis of erythrocytes with sterile lysis buffer (0.15 M NH4Cl, 0.01 M KHCO3 and 0.1 mM EDTA, pH of 7.4 at 4° C., all from Merck, Darmstadt, Germany). After lysis, the PBMC were resuspended in freezing medium (70% RPMI 1640 medium (Gibco, Thermo Fisher Technologies) supplemented with 10% heat-inactivated FCS and 100 U/ml penicillin-streptomycin, 20% heat-inactivated FCS and 10% DMSO (Sigma)) and cryopreserved.
PBMC activation model: PBMC (0.2.10^6 cell/well) were cultured in 96-well flat bottom plates (Corning). For 24 hours the cells were pre-incubated with 2′-FL (Jennewein), 3′-GL (0-0.3% w/v; Carbosynth) or sodium butyrate (0.2 mM; Sigma Aldrich) and combinations thereof. Subsequently, the cells were CD3/CD28-activated (Pelicluster CD3 and Pelicluster CD28, Sanquin) for an additional 24 hours. After incubation, IFNγ was measured by ELISA in the supernatants (see below). To determine cell activity after stimulation, PBMC were incubated with cell proliferation reagent WST-1 (10 μl; Roche) and/or 10% Triton (5 μl; negative control). After 3 hours, absorbance was measured at OD450 nm and OD650 nm and cell activity was calculated according to manufacturer's instructions.
Cytokine production of PBMC: PBMC were incubated with indicated reagents. After incubation, the supernatants were collected and IL2, IL6, IL10, IL13, IL21, TNFα, IFNγ, MIF, CCL1, CCL13, CCL17, CCL20, CCL22 and CXCL8-11 levels were measured by conducting a validated multiplex immunoassay based on Luminex technology (xMAP, Luminex Austin Tex. USA). Acquisition was conducted with the Biorad FlexMAP3D (Biorad laboratories, Hercules USA) in combination with xPONENT software version 4.2 (Luminex). Data was analyzed by 5-parametric curve fitting using Bio-Plex Manager software, version 6.1.1 (Biorad).
After PBMC stimulation, cell culture supernatants were collected, after which cytokine responses were measured in order to test immune responsiveness of the cells. […] In addition, since each donor is reacting in its own efficiency onto the T cell stimulus, we calculated the individual index of cytokine response by dividing the intervention induced response by the basal stimulated response.
Subsequently, in order to test the direct effect of specific compounds on PBMC activity, the cells were activated with CD3/CD28 for 24 hours after a pre-incubated for 24 h with either 2′-FL, 3′-GL and combinations thereof. In addition, since each donor is reacting in its own efficiency onto the T cell stimulus, the individual index of cytokine response was calculated by dividing the intervention induced response by the basal stimulated response (the blanc is set at 1). In this way the intervention within 10 different donors has been studied.

[3] = DON 4.2 μM with 2′-FL 1 mg/ml, mean

Compound | Immune cell activity as measured by WST [1] | effect on DON induced reduction in TEER and increase in LYF (Caco-2 cell monolayer; 2′-FL 1 mg/ml) | Lucifer yellow flux (Caco-2 cell monolayer; [3]) | TEER (% of initial value) (Caco-2 cell monolayer; [3]) | CCL17 levels [2] | levels of IL-4 and IL-13 compared to control [2] | Relative level of CCL17, observed [2] | Relative level of IL-4, observed [2] | Relative level of IL-13, observed [2] | effect on DON-induced loss of epithelial barrier integrity (TEER, LY flux) (Caco-2 cell monolayer; 24 h pretreatment with 0.75 wt. % GL, then DON 4.2 μM 24 h, FIGS. 1A-D)
C[C@@H]1O[C@@H](O[C@H]2[C@H](O[C@H]3[C@H](O)[C@@H](O)C(O)O[C@@H]3CO)O[C@H](CO)[C@H](O)[C@@H]2O)[C@@H](O)[C@H](O)[C@@H]1O (stereo partly drawn) [2′-FL, α-L-Fuc-(1→2)-β-D-Gal-(1→4)-D-Glc] | significantly increased | statistically significantly prevent the DON induced reduction in TEER and increase in LYF | 446.4 ng/ml (cm^2 × h) | 42.79 % of initial value | no significant effect on CCL17 levels | had no effect on the levels of IL-4 and IL-13 | 1.061 | 0.9887 | 1.039 | 
Gal (beta 1-3)-Gal (beta 1-4)-Glc [3′-GL] | decrease in activation |  |  |  | no significant effect on CCL17 levels | a decrease was detected | 0.6212 | 0.5825 | 0.5472 | prevented the DON-induced loss of epithelial barrier integrity
